Values quoted from earlier work in PMC11756063, “The fibronectin-targeting PEG-FUD imaging probe shows enhanced uptake during fibrogenesis in experimental lung fibrosis” (Respiratory Research, 2025).

Test system: fibrotic mouse lung
Details: ref [9], [13], [65]
Text: This study has potential impact for the field of molecular imaging of lung fibrosis, as methods that permit more precise and intricate assessment of disease progression are needed in clinical practice. In pulmonary fibrosis, potential molecular imaging targets being developed represent various disease mechanisms, such as activity of pathogenic fibroblasts and macrophages, ECM deposition, as well as detection of pro-fibrotic integrins.

## OC[C@H]1OC(O)[C@H]([18F])[C@@H](O)[C@@H]1O (stereo partly shown) [[^18F]FDG, [^18F]-fluorodeoxyglucose]
  pattern of uptake over the bleomycin model: peak uptake in the early phase of the bleomycin model that decline during the established phase
